# Measurements as given in patent US10202584B2, “Red-shifted luciferase-luciferin pairs for enhanced bioluminescence” (The Regents of the University of California, priority 2016, dated 2019).
# Like-named read-outs stand apart in the source and are kept apart here.
# Experiments:
# HEK 293T cells [1] = experiment: Evaluation of the cytotoxicity of luciferins
# Procedure: (§1) FIG. 15 is a panel showing the evaluation of the cytotoxicity of various luciferins. (15a) Viability of HEK 293T cells determined using RealTime-Glo™ MT Cell Viability Assay (Promega) after incubation with individual luciferin substrates for 24 h at 37° C. (15b) Evaluation of cell morphology and staining of dead cells. Cells incubated with the indicated luciferins for 24 h at 37° C. were stained with propidium iodide (PI), a fluorescent dye for dead cells.
# (§2) Cell viability was determined using RealTime-Glo™ MT Cell Viability Assay (Promega) after incubation of HEK 293T cells with individual luciferin substrates for 24 h at 37° C. Cell morphology was further evaluated using microscopy. Briefly, HEK 293T cells in 35-mm culture dishes were washed twice with 400 μL DPBS pre-warmed to 37° C., and further incubated in 500 μL DPBS containing 20 μg/mL propidium iodide (PI), a fluorescent stain for dead cells, at room temperature for 15 min under light-shielded conditions. Cells were further rinsed with pre-warmed 300 μL DPBS three times to remove residual PI. Cells in 300 μL DPBS were next analyzed on a Motic AE31 microscope equipped with a 100 W Short-Arc Mercury lamp, a 540/25 nm excitation filter, a 565 nm longpass dichroic mirror, and a 605/55 nm emission filter.
# purified luciferases = experiment: In vitro bioluminescence intensity with purified recombinant proteins; assay type: biochemical; conditions: assayed with NanoLuc
# Source text: (§3) Signals were integrated until the substrates were completely consumed.
# [2] = biological target: ReNL (NanoLuc fused to fluorescent protein) (Oplophorus gracilirostris, UniProt Q9GV45); experiment: Apparent Michaelis constant and kcat, ReNL, bioluminescence; assay type: biochemical; conditions: assay buffer pH 6.0, mean ± s.d., n = 3
# Sequence of ReNL (NanoLuc fused to fluorescent protein) (Q9GV45 28-196): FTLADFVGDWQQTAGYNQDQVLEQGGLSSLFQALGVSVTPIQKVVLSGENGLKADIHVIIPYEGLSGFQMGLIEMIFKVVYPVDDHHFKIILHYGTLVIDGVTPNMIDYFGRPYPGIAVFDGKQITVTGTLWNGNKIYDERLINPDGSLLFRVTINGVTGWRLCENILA
# Source text: (§4) The final concentrations of all enzymes were 100 pM.
# as §3
# [3] = biological target: NanoLuc luciferase (Oplophorus gracihrostris-derived, parent, SEQ ID NO: 1) (Oplophorus gracilirostris, UniProt Q9GV45, A31E/A60N/A81I/F95D/I117V/K70R/L54V/L99Q/M102K/N193R/P142E/Q151K/Q38R/Q45L/V71I/Y165I); experiment: Apparent Michaelis constant and kcat, purified NanoLuc, bioluminescence; conditions: kcat=Imax/(QY*[E]); assay buffer pH 6.0; mean ± s.d., n = 3
# Sequence of NanoLuc luciferase (Oplophorus gracihrostris-derived, parent, SEQ ID NO: 1) (Q9GV45 28-196 A31E/Q38R/Q45L/L54V/A60N/K70R/V71I/A81I/F95D/L99Q/M102K/I117V/P142E/Q151K/Y165I/N193R, looked up): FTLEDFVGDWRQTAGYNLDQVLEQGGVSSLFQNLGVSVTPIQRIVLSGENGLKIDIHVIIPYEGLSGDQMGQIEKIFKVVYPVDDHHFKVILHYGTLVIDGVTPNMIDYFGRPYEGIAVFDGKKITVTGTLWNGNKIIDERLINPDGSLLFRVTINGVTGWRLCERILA
# Source text: as §4, §3
# [4] = biological target: Antares (NanoLuc fused to CyOFP1) (Oplophorus gracilirostris, UniProt Q9GV45); experiment: Apparent Michaelis constant and kcat, Antares, bioluminescence; assay type: biochemical; conditions: assay buffer pH 6.0, mean ± s.d., n = 3
# Sequence of Antares (NanoLuc fused to CyOFP1) (Q9GV45 28-196): as the sequence (Q9GV45 28-196) above
# Source text: as §4
# (9a) Primary structural arrangement of Antares and Antares2.
# as §3
# [5] = tested on: luciferase-expressing HEK 293T cells; experiment: Bioluminescence imaging of intact luciferase-expressing HEK 293T cells; assay type: cell-based, Human; conditions: FLuc-expressing HEK 293T cells, millimolar substrate
# Source text: Images were acquired without a filter (1c) or with a 695±25 nm NIR emission filter (1e). Panels 2d and 2f are quantification results for Panels 2c and 2e, respectively. […] Data are shown as mean and s.d. of three independent experiments.
# Data are shown as mean and s.d. of three independent experiments.
# HEK 293T (purchased from ATCC and tested for mycoplasma by PCR), which is one of the most widely used and readily transfectable cell lines, was used for all tissue culture transfections. HEK 293T cells were cultured at 37° C. with 5% CO2 in Dulbecco's Modified Eagle's Medium (DMEM) supplemented with 10% fetal bovine serum (FBS). Transfection mixtures were prepared with 3 μg of plasmid DNA and 9 μg of PEI (polyethylenimine, linear, MW 25 kDa) in DMEM and incubated for 20 min at room temperature. The medium was first aspirated, and subsequently, the transfection mixtures were added to cells at 70% confluency on 35-mm culture dishes seeded one day prior to transfection. […]
# The number and density of cells in DPBS suspension were determined using a hemocytometer. […] To use the luminescence dark box to directly image cells, we added luciferase-expressing HEK293T cells (2000 cells per well with ˜70% transfection efficiency) and the corresponding luciferin substrates into wells of a white-wall, 96-well plate. […] All images were analyzed using the Fiji image analysis software [1].
# HEK 293T cells [6] = experiment: Cytotoxicity of luciferins (RealTime-Glo MT Cell Viability Assay; propidium iodide staining); assay type: cell-based; conditions: 24 h at 37° C., millimolar concentrations
# Procedure: as §1, §2
# BALB/c mice = experiment: Bioluminescence imaging in deep tissues of live mice (hydrodynamic transfection); assay type: in vivo
# Source text: FIG. 2 is a panel showing bioluminescence imaging of luciferase-luciferin pairs at superficial sites and in deep tissues of live mice. […] The group numbers in panel 2b are aligned with those in panel 2a. Two injection sites (one for luciferase-expressing cells and one for empty vehicle controls) for each mouse are illustrated with red arrows. […] Data are shown as mean and s.d. (n=3). […] Data are shown as mean and s.d. (n=4 for teLuc, Antares, and Antares2 with 3.3 μmol substrates, and n=3 for all other groups).
# FIG. 16 is a graph of bioluminescence kinetics of IP injected luciferins (3.3 μmol each) in hydrodynamically transfected mice.
# Hydrodynamic transfections were performed on BALB/c mice as described elsewhere. Briefly, 20 μg of each luciferase-expressing plasmid in sterilized saline (volume equivalent to 9% bodyweight of the treated mouse) was injected into restrained mice via the tail vein over 4-8 sec. Mice were allowed to recover on heat pads and were monitored until their breathing rate returned to normal. […] To inject 3.3 μmol DTZ or furimazine, the total volumes were increased to 500 μL. […] The Fiji image analysis software was used to process images and derive integrated intensities.
# Rluc8 = Rluc8 (Renilla reniformis, UniProt P27652, A143M/A55T/C124A/K136R/M185V/M253L/S130A/S287L); conditions: RLuc mutant Rluc8; cited from earlier work
# Sequence of Rluc8 (P27652 whole entry A55T/C124A/S130A/K136R/A143M/M185V/M253L/S287L): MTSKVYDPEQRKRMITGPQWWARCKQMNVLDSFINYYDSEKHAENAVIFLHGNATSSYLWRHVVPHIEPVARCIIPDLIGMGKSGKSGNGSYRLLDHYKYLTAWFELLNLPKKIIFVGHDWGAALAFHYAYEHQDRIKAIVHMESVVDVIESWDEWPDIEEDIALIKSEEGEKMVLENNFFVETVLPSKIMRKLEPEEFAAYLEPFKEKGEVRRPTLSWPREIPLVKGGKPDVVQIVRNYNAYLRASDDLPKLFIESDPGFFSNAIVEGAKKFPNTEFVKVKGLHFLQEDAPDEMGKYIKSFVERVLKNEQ
# NanoLuc = NanoLuc (Oplophorus gracilirostris, UniProt Q9GV45, A31E/A60N/A81I/F95D/I117V/K70R/L54V/L99Q/M102K/N193R/P142E/Q151K/Q38R/Q45L/V71I/Y165I); conditions: cited from earlier work
# Sequence of NanoLuc (Q9GV45 28-196 with tags or gaps with the stated changes limits assumed): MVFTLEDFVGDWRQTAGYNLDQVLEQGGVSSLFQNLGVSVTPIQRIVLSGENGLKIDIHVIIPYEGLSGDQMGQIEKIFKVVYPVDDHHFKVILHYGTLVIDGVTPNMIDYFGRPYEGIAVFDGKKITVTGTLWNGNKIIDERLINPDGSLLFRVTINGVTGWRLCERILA
# [7] = apparent, 100 pM enzyme, substrate 0.78 to 50 μM
compound,measurement,setting,value
"O=c1c(Cc2ccccc2)nc2c([Se]c3ccccc3)[nH]c(-c3ccccc3)cn1-2 [STZ, 2-benzyl-6-phenyl-8-(phenylselanyl)imidazo[1,2-a]pyrazin-3(7H)-one]",cell toxicity,HEK 293T cells [1],induced cell death
same,cytotoxicity by propidium iodide staining of dead cells,HEK 293T cells [1],further confirmed by the red fluorescence of PI
same,brightness relative to furimazine,purified luciferases,reduced brightness
O=c1c(Cc2ccco2)nc2c(Cc3ccccc3)[nH]c(-c3ccccc3)cn1-2 [furimazine],Km,[2]; [7],14.5 ± 1.3 µM
same,kcat,[2]; kcat=Imax/(QY*[E]),104 ± 4 s⁻¹
same,cell toxicity,HEK 293T cells [1],induced cell death
same,cytotoxicity by propidium iodide staining of dead cells,"HEK 293T cells [1]; HEK 293T cells, 24 h at 37° C.",further confirmed by the red fluorescence of PI
same,kcat,[3],88.2 ± 1.7 s⁻¹
same,Km,[4]; [7],11.1 ± 0.5 µM
same,kcat,[4]; kcat=Imax/(QY*[E]),112 ± 2 s⁻¹
O=C(O)[C@H]1CSC(c2nc3ccc(O)cc3s2)=N1 [D-luciferin],bioluminescence intensity with FLuc compared with teLuc or Antares2 with micromolar DTZ,[5],1-2 orders of magnitude lower
O=c1c(Cc2ccccc2)nc2c(-c3ccccc3)[nH]c(-c3ccccc3)cn1-2 [DTZ],cell toxicity,HEK 293T cells [6],minimal cell toxicity
"O=c1c(Cc2ccccc2)nc2c(-c3ccccc3)[nH]c(-c3ccccc3)cn1-2 [DTZ, diphenylterazine]",cell toxicity,"HEK 293T cells [1]; HEK 293T cells, 24 h at 37° C., RealTime-Glo MT Cell Viability Assay",minimal cell toxicity at millimolar concentrations
same,bioluminescence kinetics after intraperitoneal injection,"BALB/c mice; 3.3 μmol, hydrodynamically transfected mice",extended kinetics
same,background emission in untransfected BALB/c mice,BALB/c mice; DTZ injection,did not yield any background emission
same,brightness relative to furimazine,purified luciferases,reduced brightness
AkaLumine-HCl,bioluminescence intensity with FLuc compared with teLuc or Antares2 with micromolar DTZ,[5],1-2 orders of magnitude lower
same,cell toxicity,HEK 293T cells [1],induced cell death
same,cytotoxicity by propidium iodide staining of dead cells,"HEK 293T cells [1]; HEK 293T cells, 24 h at 37° C.",further confirmed by the red fluorescence of PI
6-pi-OH-CTZ,red-shift of Rluc8 bioluminescence,Rluc8,47 nm
same,bioluminescence with NanoLuc,NanoLuc,hardly any bioluminescence
